Measured values from patent publication US20070004791A1, “3,6-disubstituted azabicyclo {3.1.0} hexane derivatives useful as muscarnic receptor antagonists” (priority 2002, published 2007).
Structures can show the parent of a compound that is named as a salt.

How the values were obtained:
M3 muscarinic receptor [1] = target: T1, M3 muscarinic receptor (Rattus norvegicus, UniProt P08483); test: biochemical; conditions: Receptor Binding Assay M3 pKi
M3 muscarinic receptor [2] = target: T1, M3 muscarinic receptor
M2 muscarinic receptor = target: T2, M2 muscarinic receptor (Rattus norvegicus, UniProt P10980); test: biochemical; format: binding; conditions: Receptor Binding Assay M2 pKi
T2 construct: Submandibular glands and heart were isolated and placed in ice cold homogenising buffer; from tissue; host or cells: rat heart membrane homogenate
T2 sequence (P10980 1-466): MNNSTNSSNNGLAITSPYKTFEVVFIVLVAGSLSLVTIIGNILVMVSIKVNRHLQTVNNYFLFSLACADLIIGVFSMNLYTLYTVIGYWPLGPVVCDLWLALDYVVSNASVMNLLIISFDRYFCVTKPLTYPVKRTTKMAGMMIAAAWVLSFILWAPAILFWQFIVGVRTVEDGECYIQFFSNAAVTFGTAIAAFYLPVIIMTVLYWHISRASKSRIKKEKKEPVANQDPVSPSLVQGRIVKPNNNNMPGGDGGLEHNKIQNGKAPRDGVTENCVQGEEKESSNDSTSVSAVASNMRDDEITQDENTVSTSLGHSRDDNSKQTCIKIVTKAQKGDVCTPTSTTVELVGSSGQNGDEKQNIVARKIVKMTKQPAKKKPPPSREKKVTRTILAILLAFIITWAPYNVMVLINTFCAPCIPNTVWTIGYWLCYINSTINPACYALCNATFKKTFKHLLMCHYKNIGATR

bladder pressure = test: In vivo anaesthetized rabbit, carbachol-induced bladder pressure; conditions: bladder selectivity expressed as fold of selectivity of oxybutynin in the same model

T1 sequence (P08483 whole entry): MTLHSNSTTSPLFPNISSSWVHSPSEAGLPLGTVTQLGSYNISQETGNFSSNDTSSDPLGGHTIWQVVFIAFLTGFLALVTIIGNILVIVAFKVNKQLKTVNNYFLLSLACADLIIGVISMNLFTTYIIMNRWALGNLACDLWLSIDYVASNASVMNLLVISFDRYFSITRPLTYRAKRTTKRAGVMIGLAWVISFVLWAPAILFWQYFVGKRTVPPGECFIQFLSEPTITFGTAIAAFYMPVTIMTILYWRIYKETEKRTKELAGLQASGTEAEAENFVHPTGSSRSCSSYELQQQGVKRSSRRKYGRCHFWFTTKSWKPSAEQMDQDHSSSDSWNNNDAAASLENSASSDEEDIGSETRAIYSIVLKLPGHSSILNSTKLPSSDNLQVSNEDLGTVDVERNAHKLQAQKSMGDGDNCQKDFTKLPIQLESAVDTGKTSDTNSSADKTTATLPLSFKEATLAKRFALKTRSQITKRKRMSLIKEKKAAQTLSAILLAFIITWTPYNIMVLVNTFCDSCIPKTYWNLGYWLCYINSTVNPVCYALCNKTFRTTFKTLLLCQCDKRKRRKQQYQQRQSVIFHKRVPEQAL

In the case of `O=C(NC[C@@H]1[C@H]2CN(Cc3ccccc3)C[C@@H]12)C(O)(c1ccccc1)C1CCCC1` (stereo partly drawn) [Compound No. 3, (1α,5α,6α)-N-[3-benzyl-3-azabicyclo[3.1.0]hexyl-6(aminomethyl)-yl]-2-hydroxy-2-cyclopentyl-2-phenyl acetamide], the Ki (M3 muscarinic receptor [1]) is reported as 0.00589 µM, the “Receptor Binding Assay Selectivity M2/M3” value (M3 muscarinic receptor [2]) is reported as 16 and the Ki (M2 muscarinic receptor) is reported as 0.0955 µM. It also gave a melting point of 131 to 134 °C.

With `O=C(NCC1C2CN(Cc3ccccc3)CC12)C(O)(c1ccccc1)C1CCCC1` [Compound No. 34, (1α,5α,6α)-N-[3-benzyl-3-azabicyclo[3.1.0]hexyl-6-(aminomethyl)-yl]-2-hydroxy-2-cyclopentyl-2-phenyl acetamide L-(+)-tartrate salt] the Ki (M3 muscarinic receptor [1]) was 0.00589 µM, the “Receptor Binding Assay Selectivity M2/M3” value (M3 muscarinic receptor [2]) was 8 and the Ki (M2 muscarinic receptor) was 0.0603 µM.

For `O=C(NCC1C2CN(CCc3ccc4c(c3)CCO4)CC12)C(O)(c1ccccc1)C1CCCC1` (stereo not drawn) [Compound No. 10, (1α,5α,6α)-N-[3-(2-(2,3-dihydrobenzofuran-5-yl)ethyl)-3-azabicyclo[3.1.0]hexyl-6-(aminomethyl)-yl]-2-hydroxy-2-cyclopentyl-2-phenyl acetamide], the Ki (M3 muscarinic receptor [1]) was 0.0324 µM, the “Receptor Binding Assay Selectivity M2/M3” value (M3 muscarinic receptor [2]) was 10.47 and the Ki (M2 muscarinic receptor) was 0.339 µM.

In the case of `O=C(NCC1C2CN(Cc3ccccc3)CC12)[C@@](O)(c1ccccc1)C1CCCC1.O=C(O)C(O)C(O)C(=O)O` (stereo partly drawn) [Compound No. 36, (2S)-(−)-(1α,5α,6α)-N-[3-benzyl-3-azabicyclo[3.1.0]hexyl-6(aminomethyl)-yl]-2-hydroxy-2-cyclopentyl-2-phenylacetamide. L(+)-tartrate salt], the “Fold of Oxybutynin” value (bladder pressure) is reported as 2.17.

In the case of `O=C(NCC1C2CN(Cc3ccccc3)CC12)[C@](O)(c1ccccc1)C1CCCC1.O=C(O)C(O)C(O)C(=O)O` (stereo partly drawn) [Compound No. 35, (2R)-(+)-(1α,5α,6α)-N-[3-benzyl-3-azabicyclo[3.1.0]hexyl-6-(aminomethyl)-yl]-2-hydroxy-2-cyclopentyl-2-phenylacetamide. L(+)-tartrate salt], the “Fold of Oxybutynin” value (bladder pressure) is reported as 3.45.

For `CC(c1ccccc1)N1CC2C(CNC(=O)C(O)(c3ccccc3)C3CCCC3)C2C1` (stereo not drawn) [Compound No. 22, (1α,5α,6α)-N-[3-(1-phenylethyl)-3-azabicyclo[3.1.0]hexyl-6-(aminomethyl)-yl]-2-hydroxy-2-cyclopentyl-2-phenyl acetamide], the Ki (M3 muscarinic receptor [1]) was 0.00589 µM, the “Receptor Binding Assay Selectivity M2/M3” value (M3 muscarinic receptor [2]) was 14.8 and the Ki (M2 muscarinic receptor) was 0.0871 µM.

With `CC(NC(=O)C(O)(c1ccccc1)C1CCCC1)[C@H]1[C@@H]2CN(Cc3ccccc3)C[C@@H]21` (stereo partly drawn) [Compound No. 25, (1α,5α,6α)-N-[3-benzyl-3-azabicyclo[3.1.0]hexyl-6-(1-aminoethyl)-yl]-2-hydroxy-2-cyclopentyl-2-phenyl acetamide] the Ki (M3 muscarinic receptor [1]) was 0.0251 µM, the “Receptor Binding Assay Selectivity M2/M3” value (M3 muscarinic receptor [2]) was 17 and the Ki (M2 muscarinic receptor) was 0.427 µM.
